Measured values published in ChEMBL document CHEMBL1201862, “PubChem BioAssay data set” (2004).
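Assay format: 96-well plates, 48-hour exposure. Here, GI50 denotes the concentration required for 50% inhibition of growth.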 Calls of active or inactive are those of the source. Rule as the data show it: active = GI50 up to about 1.1 µM and inactive = higher.

Key:
Assay in all cases: inhibition of tumour cell growth, NCI panel, 48 h
CAKI-1 = tested on: CAKI-1
OVCAR-5 = tested on: OVCAR-5
A498 = tested on: A498
RXF 393 = tested on: RXF 393
Malme-3M = tested on: Malme-3M
CCRF-CEM = tested on: CCRF-CEM
DU-145 = tested on: DU-145
SK-MEL-2 = tested on: SK-MEL-2
M14 = tested on: M14
PC-3 = tested on: PC-3
SW-620 = tested on: SW-620
NCI-H23 = tested on: NCI-H23
HCT-15 = tested on: HCT-15
MOLT-4 = tested on: MOLT-4
OVCAR-3 = tested on: OVCAR-3
SK-OV-3 = tested on: SK-OV-3
LOX IMVI = tested on: LOX IMVI
HCC 2998 = tested on: HCC 2998
MDA-N = tested on: MDA-N
UACC-257 = tested on: UACC-257
EKVX = tested on: EKVX
TK-10 = tested on: TK-10
NCI-H460 = tested on: NCI-H460
MCF7 = tested on: MCF7
HCT-116 = tested on: HCT-116
ACHN = tested on: ACHN
UACC-62 = tested on: UACC-62
OVCAR-8 = tested on: OVCAR-8
HL-60 = tested on: HL-60
SK-MEL-5 = tested on: SK-MEL-5
BT-549 = tested on: BT-549
SNB-19 = tested on: SNB-19
A549 = tested on: A549
NCI-H226 = tested on: NCI-H226
MDA-MB-435 = tested on: MDA-MB-435
COLO 205 = tested on: COLO 205
SN12C = tested on: SN12C
SF-295 = tested on: SF-295
HOP-92 = tested on: HOP-92
SR = tested on: SR
RPMI-8226 = tested on: RPMI-8226
HOP-62 = tested on: HOP-62
SF-539 = tested on: SF-539
U-251 = tested on: U-251
MDA-MB-231 = tested on: MDA-MB-231
K562 = tested on: K562
NCI/ADR-RES = tested on: NCI/ADR-RES
HT-29 = tested on: HT-29
786-0 = tested on: 786-0
UO-31 = tested on: UO-31
IGROV-1 = tested on: IGROV-1
Hs-578T = tested on: Hs-578T
KM12 = tested on: KM12
SK-MEL-28 = tested on: SK-MEL-28
OVCAR-4 = tested on: OVCAR-4
SF-268 = tested on: SF-268
NCI-H522 = tested on: NCI-H522
SNB-75 = tested on: SNB-75

Question: For `CC(C)(C)C1CCC2c3c([nH]c4ccccc34)C3C(=O)N(c4cc(Cl)ccc4Cl)C(=O)C3C2C1` (stereo unspecified), which GI50 (CAKI-1) is on record?
Answer: > 100 µM (inactive)

Question: What about the GI50 (OVCAR-5) of the same molecule?
Answer: > 100 µM (inactive)

Question: And the GI50 (A498)?
Answer: > 100 µM (inactive)

Question: And the GI50 (RXF 393)?
Answer: > 100 µM (inactive)

Question: And the GI50 (Malme-3M)?
Answer: > 100 µM (inactive)

Question: And the GI50 (CCRF-CEM)?
Answer: > 100 µM (inactive)

Question: And the GI50 (DU-145)?
Answer: > 100 µM (inactive)

Question: And the GI50 (SK-MEL-2)?
Answer: > 100 µM (inactive)

Question: What about the GI50 (M14) of the same molecule?
Answer: > 100 µM (inactive)

Question: What about the GI50 (PC-3) of the same molecule?
Answer: > 100 µM (inactive)

Question: And the GI50 (SW-620)?
Answer: 5.85 µM (inactive)

Question: What about the GI50 (NCI-H23) of the same molecule?
Answer: > 100 µM (inactive)

Question: What about the GI50 (HCT-15) of the same molecule?
Answer: > 100 µM

Question: What about the GI50 (MOLT-4) of the same molecule?
Answer: > 100 µM (inactive)

Question: And the GI50 (OVCAR-3)?
Answer: > 100 µM (inactive)

Question: And the GI50 (SK-OV-3)?
Answer: > 100 µM (inactive)

Question: What about the GI50 (LOX IMVI) of the same molecule?
Answer: 38.8 µM (inactive)

Question: And the GI50 (HCC 2998)?
Answer: > 100 µM (inactive)

Question: And the GI50 (MDA-N)?
Answer: > 100 µM (inactive)

Question: And the GI50 (UACC-257)?
Answer: > 100 µM (inactive)

Question: What about the GI50 (EKVX) of the same molecule?
Answer: > 100 µM (inactive)

Question: What about the GI50 (TK-10) of the same molecule?
Answer: > 100 µM (inactive)

Question: And the GI50 (NCI-H460)?
Answer: > 100 µM (inactive)

Question: What about the GI50 (MCF7) of the same molecule?
Answer: > 100 µM (inactive)

Question: And the GI50 (HCT-116)?
Answer: > 100 µM (inactive)

Question: And the GI50 (ACHN)?
Answer: > 100 µM (inactive)

Question: What about the GI50 (UACC-62) of the same molecule?
Answer: > 100 µM (inactive)

Question: And the GI50 (OVCAR-8)?
Answer: 52.6 µM (inactive)

Question: What about the GI50 (HL-60) of the same molecule?
Answer: > 10 µM (inactive)

Question: What about the GI50 (SK-MEL-5) of the same molecule?
Answer: > 100 µM (inactive)

Question: And the GI50 (BT-549)?
Answer: > 100 µM (inactive)

Question: And the GI50 (SNB-19)?
Answer: > 100 µM (inactive)

Question: And the GI50 (A549)?
Answer: > 100 µM (inactive)

Question: And the GI50 (NCI-H226)?
Answer: > 100 µM (inactive)

Question: And the GI50 (MDA-MB-435)?
Answer: > 100 µM (inactive)

Question: And the GI50 (COLO 205)?
Answer: > 100 µM (inactive)

Question: What about the GI50 (SN12C) of the same molecule?
Answer: > 100 µM (inactive)

Question: What about the GI50 (SF-295) of the same molecule?
Answer: > 100 µM (inactive)

Question: And the GI50 (HOP-92)?
Answer: 65.8 µM (inactive)

Question: What about the GI50 (SR) of the same molecule?
Answer: > 10 µM (inactive)

Question: What about the GI50 (RPMI-8226) of the same molecule?
Answer: > 100 µM (inactive)

Question: And the GI50 (HOP-62)?
Answer: > 100 µM (inactive)

Question: And the GI50 (SF-539)?
Answer: > 100 µM (inactive)

Question: And the GI50 (U-251)?
Answer: > 10 µM (inactive)

Question: What about the GI50 (MDA-MB-231) of the same molecule?
Answer: 25.9 µM (inactive)

Question: What about the GI50 (K562) of the same molecule?
Answer: > 100 µM (inactive)

Question: What about the GI50 (NCI/ADR-RES) of the same molecule?
Answer: > 100 µM (inactive)

Question: And the GI50 (HT-29)?
Answer: > 100 µM (inactive)

Question: And the GI50 (786-0)?
Answer: > 100 µM (inactive)

Question: What about the GI50 (UO-31) of the same molecule?
Answer: > 100 µM (inactive)

Question: And the GI50 (IGROV-1)?
Answer: > 100 µM (inactive)

Question: And the GI50 (Hs-578T)?
Answer: 45.5 µM (inactive)

Question: With `OC1(c2cc3ccccc3s2)CCCCC1` as the molecule, how does the GI50 (CAKI-1) read?
Answer: > 100 µM (inactive)

Question: And the GI50 (OVCAR-5)?
Answer: 40.8 µM (inactive)

Question: What about the GI50 (A498) of the same molecule?
Answer: 43.2 µM (inactive)

Question: And the GI50 (RXF 393)?
Answer: 39.4 µM (inactive)

Question: And the GI50 (CCRF-CEM)?
Answer: 21.4 µM (inactive)

Question: What about the GI50 (DU-145) of the same molecule?
Answer: 63.2 µM (inactive)

Question: And the GI50 (KM12)?
Answer: 41.3 µM (inactive)

Question: And the GI50 (SK-MEL-28)?
Answer: 81.3 µM (inactive)

Question: What about the GI50 (M14) of the same molecule?
Answer: 66.8 µM (inactive)

Question: What about the GI50 (SW-620) of the same molecule?
Answer: 50.1 µM (inactive)

Question: And the GI50 (NCI-H23)?
Answer: 46.6 µM (inactive)

Question: And the GI50 (HCT-15)?
Answer: 39.1 µM

Question: What about the GI50 (MOLT-4) of the same molecule?
Answer: 25.8 µM (inactive)

Question: And the GI50 (OVCAR-3)?
Answer: 30.1 µM (inactive)

Question: What about the GI50 (SK-OV-3) of the same molecule?
Answer: 66.4 µM (inactive)

Question: And the GI50 (LOX IMVI)?
Answer: 45.8 µM (inactive)

Question: What about the GI50 (HCC 2998) of the same molecule?
Answer: 76 µM (inactive)

Question: And the GI50 (MDA-N)?
Answer: 38.4 µM (inactive)

Question: What about the GI50 (UACC-257) of the same molecule?
Answer: 32.6 µM (inactive)

Question: What about the GI50 (OVCAR-4) of the same molecule?
Answer: 39.2 µM (inactive)

Question: And the GI50 (SF-268)?
Answer: 29.2 µM (inactive)

Question: And the GI50 (EKVX)?
Answer: 33.6 µM (inactive)

Question: And the GI50 (TK-10)?
Answer: 64.4 µM (inactive)

Question: And the GI50 (NCI-H460)?
Answer: 44.2 µM (inactive)

Question: And the GI50 (MCF7)?
Answer: 36.6 µM (inactive)

Question: And the GI50 (HCT-116)?
Answer: 33.3 µM (inactive)

Question: And the GI50 (ACHN)?
Answer: 69 µM (inactive)

Question: And the GI50 (UACC-62)?
Answer: 69.7 µM (inactive)

Question: What about the GI50 (OVCAR-8) of the same molecule?
Answer: 42.6 µM (inactive)

Question: What about the GI50 (NCI-H522) of the same molecule?
Answer: 28.1 µM (inactive)

Question: And the GI50 (HL-60)?
Answer: 37.7 µM (inactive)

Question: What about the GI50 (SK-MEL-5) of the same molecule?
Answer: 34.7 µM (inactive)

Question: And the GI50 (BT-549)?
Answer: 55.7 µM (inactive)

Question: What about the GI50 (SNB-19) of the same molecule?
Answer: 82.4 µM (inactive)

Question: What about the GI50 (A549) of the same molecule?
Answer: 40.8 µM (inactive)

Question: And the GI50 (NCI-H226)?
Answer: 80.9 µM (inactive)

Question: And the GI50 (MDA-MB-435)?
Answer: 46.8 µM (inactive)

Question: And the GI50 (COLO 205)?
Answer: 19.9 µM (inactive)

Question: What about the GI50 (SN12C) of the same molecule?
Answer: 30.9 µM (inactive)

Question: What about the GI50 (SF-295) of the same molecule?
Answer: 37.9 µM (inactive)

Question: What about the GI50 (HOP-92) of the same molecule?
Answer: 18 µM (inactive)

Question: What about the GI50 (SR) of the same molecule?
Answer: 38.4 µM (inactive)

Question: And the GI50 (HOP-62)?
Answer: > 100 µM (inactive)

Question: What about the GI50 (SF-539) of the same molecule?
Answer: > 100 µM (inactive)

Question: And the GI50 (U-251)?
Answer: 49.5 µM (inactive)

Question: And the GI50 (MDA-MB-231)?
Answer: 30.8 µM (inactive)

Question: And the GI50 (K562)?
Answer: 34.4 µM (inactive)

Question: What about the GI50 (SNB-75) of the same molecule?
Answer: 35.1 µM (inactive)

Question: What about the GI50 (NCI/ADR-RES) of the same molecule?
Answer: 47.2 µM (inactive)

Question: And the GI50 (HT-29)?
Answer: 23.7 µM (inactive)

Question: And the GI50 (786-0)?
Answer: 34 µM (inactive)

Question: What about the GI50 (UO-31) of the same molecule?
Answer: 51.1 µM (inactive)

Question: And the GI50 (IGROV-1)?
Answer: 87.5 µM (inactive)

Question: And the GI50 (Hs-578T)?
Answer: 28.5 µM (inactive)
